“And” between values parts separate entries of the source, which are not always exact repeats. Equal entries are not always repeated. Where two headings read alike, the source gives them in different places.
Assays:
EphB1-EphrinB2 (EB2) = target: T1, EphB1-EphrinB2 (EB2) (Rattus norvegicus, UniProt P09759); test: Alpha assay EphB1-EphrinB2 (EB2) interaction; type: binding, mouse EB2
T1 construct: rat EphB1-Fc residues 18-538; mouse EB2-His residues 18-232; purchased R&D Systems (EphB1-Fc); Sino Biologicals (EB2-His)
T1 sequence (P09759 18-538): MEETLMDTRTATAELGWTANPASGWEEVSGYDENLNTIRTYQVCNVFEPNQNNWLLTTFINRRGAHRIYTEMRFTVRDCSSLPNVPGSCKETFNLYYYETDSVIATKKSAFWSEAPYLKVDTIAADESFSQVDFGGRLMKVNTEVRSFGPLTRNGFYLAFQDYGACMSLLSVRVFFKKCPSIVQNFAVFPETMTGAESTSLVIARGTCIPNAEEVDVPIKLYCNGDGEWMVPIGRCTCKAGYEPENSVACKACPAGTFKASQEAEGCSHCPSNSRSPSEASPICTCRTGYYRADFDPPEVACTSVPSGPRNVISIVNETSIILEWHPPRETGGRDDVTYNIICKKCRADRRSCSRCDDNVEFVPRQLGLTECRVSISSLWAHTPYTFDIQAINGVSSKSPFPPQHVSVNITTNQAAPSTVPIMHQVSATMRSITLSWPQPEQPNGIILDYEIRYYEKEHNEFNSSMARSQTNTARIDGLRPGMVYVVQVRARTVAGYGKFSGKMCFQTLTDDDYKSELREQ
Excerpt: A chemiluminescent AlphaScreen™ bead-based proximity assay suitable for HTS was developed to measure the receptor-ligand interaction formed between EphB1 and EphrinB2 (EB2) ectodomains (FIG. 3). Here, when singlet oxygen molecules generated by high energy irradiation of donor beads travel over a constrained distance to excite acceptor beads, a chemiluminescent signal is generated and detected. If an analyte interferes with the EphB1-EB2 protein-protein interaction, close proximity of the donor and acceptor beads will be disrupted resulting in diminished or lost energy transfer and reduced acceptor bead emission.
Test was conducted in the Alpha assay, to see if purified soluble Reelin (previously shown to bind EphB1 ectodomain) can interfere with EphB1-EB2 binding.
The EphB1-EB2 screen was conducted using 0.8 nM of each protein, 50 ng beads per well, and assessed at 5 μM a library of −240,000 small, drug-like chemicals. […] They were also tested in a counter screen designed to identify non-specific compounds. Here, a single-protein Alpha assay was set up using a dual-tagged EphB2-His-Fc ectodomain protein that can bind both donor and acceptor beads to bring them into proximity. If a selected compound simply absorbs the chemiluminescent signal or interferes with bead function/binding or protein folding, it was hypothesized that it would also reduce signals in the single protein assay, and would consider it a false positive.

EphB2-EphrinA5 = target: T2, EphB2-EphrinA5 (Mus musculus, UniProt P54763); test: Octet, immobilized EphB2 binding to human EphrinA5; conditions: for IC50: mEphB2-hEphrinA5, immobilized mouse EphB2, 50 nM soluble human EphrinA5
T2 sequence (P54763 19-543 limits assumed): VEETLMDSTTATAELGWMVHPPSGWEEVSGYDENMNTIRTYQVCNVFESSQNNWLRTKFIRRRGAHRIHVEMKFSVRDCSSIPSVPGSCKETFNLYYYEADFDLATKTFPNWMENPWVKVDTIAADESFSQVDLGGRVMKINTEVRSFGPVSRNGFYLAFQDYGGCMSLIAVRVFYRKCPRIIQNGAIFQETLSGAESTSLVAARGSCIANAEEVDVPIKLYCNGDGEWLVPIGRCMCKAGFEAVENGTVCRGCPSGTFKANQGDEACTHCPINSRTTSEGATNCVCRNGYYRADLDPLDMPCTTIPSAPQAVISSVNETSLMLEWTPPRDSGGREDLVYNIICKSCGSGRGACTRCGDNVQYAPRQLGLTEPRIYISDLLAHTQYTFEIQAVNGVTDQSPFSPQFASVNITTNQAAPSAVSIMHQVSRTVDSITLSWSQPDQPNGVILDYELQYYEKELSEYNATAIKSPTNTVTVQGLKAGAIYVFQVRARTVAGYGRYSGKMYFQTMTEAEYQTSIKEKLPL
Protocol: The Octet system was used to probe the interactions of epitope-tagged human A class proteins, focusing on immobilized EphA3 binding to two of its cognate ligands, EphrinA1 and EphrinA5, as well as EphB2 binding to EphrinA5 (FIG. 27). […] Focusing on the dimerization-driven EphA3-EA5 interaction first (green sensorgram trace), which mimics what is disclosed above for EphB4-EB2, the initial binding of soluble EphrinA5 to the immobilized EphA3 is very fast and strong with a long and steep 84° slope of response that then quickly bends around 35 sec into the association step to form a more gradual tetramerization accumulation slope. […] However, again like the EphB4-EB2 interaction, once placed into dissociation, a significant fraction of the bound EA5 protein melts quickly and the off phase continues downward with a slow gradual decline in bound protein. Although the dissociation was for only 500 sec, the continued downward slope of the response indicates most of the bound EA5 protein would eventually melt off of the immobilized EphA3 protein. This is referred to as a classic dimerization-driven interaction, fast and strong initial binding in the association step but with most of the bound protein coming off in the dissociation due to lack of formation of stable tetramers. EphA3 interacts with EphrinA1 with totally different kinetics/dynamics (orange sensorgram trace). Here, the initial high 84° dimerization slope phase is extremely brief (5 sec) with the binding quickly snapping into a linear tetramerization accumulation phase with a 25° slope, and that once placed into dissociation step almost no bound protein melts, just the small amount that would represent dimer interactions falling off in the first few seconds after being placed into dissociation. […] EphB2 interacting with EA5 is similar to the EphA3-EA1 interaction, in that the association step is characterized by a very brief (5 sec) high 84° slope phase that quickly bends into a more gradual tetramer accumulation phase (blue sensorgram trace). […] The strong initial off phase of the EphB2-EA5 complexes in the dissociation represents both the melting of weak dimers and of the relatively weaker affinity tetramers formed by the cross A/B class EphB2-EA5 molecules. […]
The novel compound A20-I is a halogen replacement that changes the 7-bromine in A20 for iodine and had enhanced tetramerization inhibitor activity (FIGS. 38A-38D). This is evident when comparing results of A20-I and A20 salt compounds on the interaction of immobilized mouse EphB2 ectodomain binding to soluble mouse EphrinB2 ectodomain (FIG. 38A and FIG. 38B) or soluble human EphrinA5 (FIG. 38C). […] During these interactions of immobilized EphB ectodomains binding to soluble EphrinB2, the tetramer is much more surmountable by addition of an active compound than for the reverse experiment where EphrinB2 is immobilized and EphB2 is the soluble component in the assay (see FIG. 11, FIG. 17, and FIG. 25A-FIG. 25C). It is believed that the more resistant unsurmountable tetramer formed by immobilized EphrinB2 binding to soluble EphB ectodomains provides for the most rigorous test for determining IC50 values and thus utilizing this EphrinB2-EphB2 assay for analysis of all compounds, provide uniformity in observed results. The results described herein with A20-I and using the human EphrinB2-EphB2 interaction indicates replacements can be made in the 7-bromine in A20 that lead to enhanced tetramerization inhibitor activity.

[1] = association, absolute, read-out: Absolute Association IC50
[2] = association, relative, read-out: Relative Association IC50
[3] = dissociation, absolute, read-out: Absolute Dissociation IC50
[4] = dissociation, relative, read-out: Relative Dissociation IC50

Question: Which “antagonism of EphB1-EB2” value (EphB1-EphrinB2 (EB2)) does the source give for `Oc1ccc(CN2CCOCC2)c2cccnc12` [Compound 1, 5-(morpholinomethyl)quinolin-8-ol] here?
Answer: some inhibitory activity though it was not apparent until higher concentrations

Question: How did the “antagonism of EphB1-EB2” value (EphB1-EphrinB2 (EB2)) turn out when `Oc1c(Cl)cc(CN2CCOCC2)c2cccnc12` [Compound 3, 7-chloro-5-(morpholinomethyl)quinolin-8-ol] was run?
Answer: may be as effective as A20 at antagonizing EphB1-EB2 and EphB2-EB2 interactions

Question: How did the IC50 (EphB2-EphrinA5; [1]) turn out when `Oc1c(Cl)cc(CN2CCOCC2)c2cccnc12` [Compound 4, 4-((7-chloro-8-hydroxyquinolin-1-ium-5-yl)methyl)morpholin-4-ium chloride] was run?
Answer: < 1000 nM

Question: And the IC50 (EphB2-EphrinA5; [2])?
Answer: < 1000 nM

Question: And the IC50 (EphB2-EphrinA5; [3])?
Answer: < 1000 nM

Question: What about the IC50 (EphB2-EphrinA5; [4]) of the same molecule?
Answer: < 1000 nM

Question: For `Oc1c(Br)cc(CN2CCOCC2)c2cccnc12` [Compound 5, 7-bromo-5-(morpholinomethyl)quinolin-8-ol], which “formation of stable tetramers” value (EphB2-EphrinA5; 1 μM) is on record?
Answer: completely inhibited the formation of stable tetramers

Question: What does the source list for `Oc1c(Br)cc(CN2CCOCC2)c2cccnc12` [Compound 6, 4-((7-bromo-8-hydroxyquinolin-1-ium-5-yl)methyl)morpholin-4-ium chloride]?
Answer: IC50 (EphB2-EphrinA5; [1]): 570 nM; IC50 (EphB2-EphrinA5; [3]): < 1000 nM

Question: Which results are given for `Oc1c(I)cc(CN2CCOCC2)c2cccnc12` [Compound 8, 4-((8-hydroxy-7-iodoquinolin-1-ium-5-yl)methyl)morpholin-4-ium chloride]?
Answer: IC50 (EphB2-EphrinA5; [1]): 420 nM and 1590 nM; IC50 (EphB2-EphrinA5; [2]): 220 nM and 830 nM; IC50 (EphB2-EphrinA5; [3]): 90 nM; IC50 (EphB2-EphrinA5; [4]): 80 nM

Question: With `O=[N+]([O-])c1cc(CN2CCOCC2)c2cccnc2c1O` [Compound 10, 4-((8-hydroxy-7-nitroquinolin-1-ium-5-yl)methyl)morpholin-4-ium chloride] as the molecule, how does the IC50 (EphB2-EphrinA5; [1]) read?
Answer: 4240 nM

Question: And the IC50 (EphB2-EphrinA5; [2])?
Answer: 2900 nM

Question: And the IC50 (EphB2-EphrinA5; [3])?
Answer: 100000 nM

Question: And the IC50 (EphB2-EphrinA5; [4])?
Answer: 100000 nM

Question: Which IC50 (EphB2-EphrinA5; [1]) does the source give for `O=S1(=O)CCN(Cc2ccc(O)c3ncccc23)CC1` [Compound 15, 4-((8-hydroxyquinolin-1-ium-5-yl)methyl)thiomorpholin-4-ium 1,1-dioxide chloride] here?
Answer: 7040 nM

Question: And the IC50 (EphB2-EphrinA5; [2])?
Answer: > 1000 nM

Question: And the IC50 (EphB2-EphrinA5; [3])?
Answer: 8400 nM

Question: What about the IC50 (EphB2-EphrinA5; [4]) of the same molecule?
Answer: > 1000 nM

Question: Which “antagonism of EphB1-EB2” value (EphB1-EphrinB2 (EB2)) does the source give for `Oc1ccc(CN2CCN(c3ccc(Br)cc3)CC2)c2cccnc12` [Compound 26, 5-((4-(4-bromophenyl)piperazin-1-yl)methyl)quinolin-8-ol] here?
Answer: strong dose-dependent antagonist activity

Question: With `Oc1ccc(CN2CCN(Cc3ccc(C(F)(F)F)cc3)CC2)c2cccnc12` [Compound 48, 5-((4-(4-(trifluoromethyl)benzyl)piperazin-1-yl)methyl)quinolin-8-ol] as the molecule, how does the IC50 (EphB2-EphrinA5; [1]) read?
Answer: 8240 nM

Question: What about the IC50 (EphB2-EphrinA5; [2]) of the same molecule?
Answer: > 1000 nM

Question: And the IC50 (EphB2-EphrinA5; [3])?
Answer: 1000 nM

Question: What about the IC50 (EphB2-EphrinA5; [4]) of the same molecule?
Answer: 1000 nM

Question: With `Oc1ccc(CN2CCN(c3ccc(F)cc3F)CC2)c2cccnc12` [Compound 62, 5-((4-(2,4-difluorophenyl)piperazin-1-yl)methyl)quinolin-8-ol] as the molecule, how does the “antagonism of EphB1-EB2” value (EphB1-EphrinB2 (EB2)) read?
Answer: some inhibitory activity though it was not apparent until higher concentrations

Question: Which “antagonism of EphB1-EB2” value (EphB1-EphrinB2 (EB2)) does the source give for `Oc1ccc(CN2CCCCC2)c2cccnc12` [Compound 68, 5-(piperidin-1-ylmethyl)quinolin-8-ol, reference compound] here?
Answer: did not exhibit any activity

Question: `COc1ccccc1N1CCN(Cc2cc(Br)c(O)c3ncccc23)CC1` [Compound 70, 7-bromo-5-((4-(2-methoxyphenyl)piperazin-1-yl)methyl)quinolin-8-ol] was tested. Which “antagonism of EphB1-EB2” value (EphB1-EphrinB2 (EB2)) did it give?
Answer: may be as effective as A20 at antagonizing EphB1-EB2 and EphB2-EB2 interactions

Question: For `Oc1c(CN2CCCCC2)cc(Cl)c2cccnc12` [Compound 76, 5-chloro-7-(piperidin-1-ylmethyl)quinolin-8-ol, reference compound], which “antagonism of EphB1-EB2” value (EphB1-EphrinB2 (EB2)) is on record?
Answer: did not exhibit any activity

Question: Which “antagonism of EphB1-EB2” value (EphB1-EphrinB2 (EB2)) does the source give for `COCc1cc(CN2CCN(C)CC2)c(O)c2ncccc12` [Compound 77, 5-(methoxymethyl)-7-((4-methylpiperazin-1-yl)methyl)quinolin-8-ol, reference compound] here?
Answer: did not exhibit any activity
